In brackets after ≈: the same amount, converted by molar mass.

The test has as its system Plasmodium falciparum. Kind of test: Antiplasmodial activity against chloroquine-resistant Plasmodium falciparum W2 by FACS. In kind it is functional, organism-based.

The term IC50 denotes the concentration needed to halve the response being measured. Low readings indicate greater potency, high ones weaker potency. As for `CC1OC(=O)C(C=O)=C2C=COC=C21` (centres undefined) [FAGRALDEHYDE], 22.4 µg/mL (≈ 117 µM) corresponded to half-maximal inhibition (IC50).

As to `C=C[C@@H]1C2=CCOC(=O)C2=CO[C@H]1O[C@@H]1O[C@H](CO)[C@@H](O)[C@H](O)[C@H]1O` [GENTIOPICROSIDE], the IC50 was > 50 µg/mL.

Take `C=C[C@H]1[C@H](O[C@@H]2O[C@H](CO)[C@@H](O)[C@H](O)[C@H]2O)OC=C2C(=O)OCC[C@H]21` [SWEROSIDE]: the concentration for half-maximal inhibition (IC50) was > 50 µg/mL.

As for `C=C[C@H]1[C@H](O[C@@H]2O[C@H](CO)[C@@H](O)[C@H](O)[C@H]2O)OC=C2C(=O)OCC[C@]21O` [SWERTIAMARIN], the IC50 is > 50 µg/mL.
